Results taken from ChEMBL document CHEMBL1201862, “PubChem BioAssay data set” (2004).
Activity calls are given as the source filed them. Cut-off read from the data, not from the text of the source, for most assays here: actives have a measured IC50 and inactives only a lower limit.

How the values were obtained:
Protein RecA = target: T1, Protein RecA (Mycobacterium tuberculosis, UniProt P9WHJ3); assay: Fluorescence Cell-Free Homogeneous Dose Retest to Identify Inhibitors of RecA-Intein Splicing Activity. [Related pubchem assays (depositor defined):AID2097, AID2223, AID489010, AID492950]; format: functional
T1 sequence (P9WHJ3 whole entry): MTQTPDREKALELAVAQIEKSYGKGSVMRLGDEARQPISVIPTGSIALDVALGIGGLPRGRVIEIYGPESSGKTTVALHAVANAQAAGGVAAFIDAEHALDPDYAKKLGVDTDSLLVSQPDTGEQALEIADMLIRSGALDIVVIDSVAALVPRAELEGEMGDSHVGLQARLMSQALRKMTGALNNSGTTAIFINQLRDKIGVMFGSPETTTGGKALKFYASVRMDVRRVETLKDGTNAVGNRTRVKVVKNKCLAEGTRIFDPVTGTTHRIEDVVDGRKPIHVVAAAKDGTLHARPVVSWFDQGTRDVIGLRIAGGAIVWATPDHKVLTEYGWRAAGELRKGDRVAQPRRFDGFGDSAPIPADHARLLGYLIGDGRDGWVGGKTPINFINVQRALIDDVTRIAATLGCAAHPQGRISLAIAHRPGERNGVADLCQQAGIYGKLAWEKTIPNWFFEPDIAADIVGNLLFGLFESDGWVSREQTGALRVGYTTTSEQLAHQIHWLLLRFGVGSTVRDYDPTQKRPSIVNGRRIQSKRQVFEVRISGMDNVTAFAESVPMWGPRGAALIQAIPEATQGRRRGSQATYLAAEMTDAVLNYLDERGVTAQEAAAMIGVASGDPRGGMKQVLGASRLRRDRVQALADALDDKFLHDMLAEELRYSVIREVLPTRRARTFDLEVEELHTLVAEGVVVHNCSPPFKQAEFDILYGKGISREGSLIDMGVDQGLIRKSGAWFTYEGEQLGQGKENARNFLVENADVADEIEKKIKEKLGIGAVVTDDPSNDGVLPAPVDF

[1] = target: T2, Replicative DNA helicase DnaB (Mycobacterium tuberculosis, UniProt P9WMR3); assay: DnaB intein splicing inhibitors, dose response, biochemical, cell-free fluorescence (AID 449749); format: functional
T2 sequence (P9WMR3 whole entry): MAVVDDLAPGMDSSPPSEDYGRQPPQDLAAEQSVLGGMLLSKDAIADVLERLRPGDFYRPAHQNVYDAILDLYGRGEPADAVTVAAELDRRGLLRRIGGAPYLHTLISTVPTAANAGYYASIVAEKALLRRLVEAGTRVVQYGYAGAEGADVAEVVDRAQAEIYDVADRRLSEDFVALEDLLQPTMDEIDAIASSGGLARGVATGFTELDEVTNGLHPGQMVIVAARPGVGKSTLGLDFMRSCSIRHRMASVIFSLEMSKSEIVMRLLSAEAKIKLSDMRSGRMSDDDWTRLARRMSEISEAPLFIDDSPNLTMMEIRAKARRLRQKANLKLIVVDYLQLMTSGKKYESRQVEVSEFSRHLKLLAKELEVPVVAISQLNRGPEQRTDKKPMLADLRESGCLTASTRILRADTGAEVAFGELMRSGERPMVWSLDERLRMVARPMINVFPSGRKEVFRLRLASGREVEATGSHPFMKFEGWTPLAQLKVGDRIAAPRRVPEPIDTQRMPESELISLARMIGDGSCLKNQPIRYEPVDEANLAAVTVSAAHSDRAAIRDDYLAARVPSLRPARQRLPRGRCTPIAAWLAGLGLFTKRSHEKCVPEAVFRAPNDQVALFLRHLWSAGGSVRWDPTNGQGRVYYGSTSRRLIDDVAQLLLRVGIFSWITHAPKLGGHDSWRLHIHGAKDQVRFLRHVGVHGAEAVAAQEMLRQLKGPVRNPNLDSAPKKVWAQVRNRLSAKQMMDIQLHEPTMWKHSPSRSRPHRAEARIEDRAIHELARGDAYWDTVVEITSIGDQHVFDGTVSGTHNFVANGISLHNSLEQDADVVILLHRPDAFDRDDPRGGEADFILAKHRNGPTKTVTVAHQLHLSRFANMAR

SUMO-activating enzyme [2] = target: T3, SUMO-activating enzyme (Homo sapiens, UniProt Q9UBT2); assay: inhibitors of in vitro SUMOylation cascade, primary screen, biochemical, HTRF, uHTS (AID 2006); format: protein-complex assay
[3] = target: T4, Apoptotic protease-activating factor 1 (Homo sapiens, UniProt O14727); format: functional
T4 sequence (O14727 whole entry): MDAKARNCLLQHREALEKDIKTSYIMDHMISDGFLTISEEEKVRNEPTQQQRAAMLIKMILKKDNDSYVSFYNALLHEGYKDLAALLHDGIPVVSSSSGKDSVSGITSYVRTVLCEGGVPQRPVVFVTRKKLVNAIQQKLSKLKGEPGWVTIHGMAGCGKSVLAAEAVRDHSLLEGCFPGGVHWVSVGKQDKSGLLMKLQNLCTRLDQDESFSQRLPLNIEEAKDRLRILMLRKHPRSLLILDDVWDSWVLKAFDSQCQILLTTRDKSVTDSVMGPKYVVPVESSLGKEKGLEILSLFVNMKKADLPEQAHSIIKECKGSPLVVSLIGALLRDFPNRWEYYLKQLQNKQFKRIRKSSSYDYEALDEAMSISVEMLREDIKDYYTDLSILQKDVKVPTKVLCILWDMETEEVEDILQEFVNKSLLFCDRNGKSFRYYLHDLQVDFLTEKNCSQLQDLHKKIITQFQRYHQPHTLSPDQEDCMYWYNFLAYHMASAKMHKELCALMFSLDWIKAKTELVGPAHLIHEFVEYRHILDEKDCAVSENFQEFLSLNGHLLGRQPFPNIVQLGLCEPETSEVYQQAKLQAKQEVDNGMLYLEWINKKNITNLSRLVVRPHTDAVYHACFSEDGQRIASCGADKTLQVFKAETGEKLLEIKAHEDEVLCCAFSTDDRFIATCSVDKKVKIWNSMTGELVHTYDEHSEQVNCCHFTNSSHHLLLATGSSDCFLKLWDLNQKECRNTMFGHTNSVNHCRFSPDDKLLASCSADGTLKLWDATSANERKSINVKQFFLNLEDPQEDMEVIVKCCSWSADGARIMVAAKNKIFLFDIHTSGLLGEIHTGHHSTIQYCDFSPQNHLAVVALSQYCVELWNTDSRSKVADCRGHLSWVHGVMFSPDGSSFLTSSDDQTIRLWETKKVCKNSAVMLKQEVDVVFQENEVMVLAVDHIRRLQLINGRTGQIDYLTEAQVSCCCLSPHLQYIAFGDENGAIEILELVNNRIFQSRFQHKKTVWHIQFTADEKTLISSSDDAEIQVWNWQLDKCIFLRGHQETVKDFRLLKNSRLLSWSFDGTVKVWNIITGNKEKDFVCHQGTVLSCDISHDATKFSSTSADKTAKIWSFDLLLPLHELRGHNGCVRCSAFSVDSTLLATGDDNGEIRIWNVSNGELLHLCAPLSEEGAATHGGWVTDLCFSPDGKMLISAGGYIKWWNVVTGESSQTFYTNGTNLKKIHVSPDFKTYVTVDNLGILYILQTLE

SUMO-activating enzyme [4] = target: T3, SUMO-activating enzyme; assay: SUMOylation inhibitor hit validation, confirmation, SUMOylation inhibitor project, biochemical, AlphaScreen (AID 2018); format: functional

T3 sequence (Q9UBE0 whole entry): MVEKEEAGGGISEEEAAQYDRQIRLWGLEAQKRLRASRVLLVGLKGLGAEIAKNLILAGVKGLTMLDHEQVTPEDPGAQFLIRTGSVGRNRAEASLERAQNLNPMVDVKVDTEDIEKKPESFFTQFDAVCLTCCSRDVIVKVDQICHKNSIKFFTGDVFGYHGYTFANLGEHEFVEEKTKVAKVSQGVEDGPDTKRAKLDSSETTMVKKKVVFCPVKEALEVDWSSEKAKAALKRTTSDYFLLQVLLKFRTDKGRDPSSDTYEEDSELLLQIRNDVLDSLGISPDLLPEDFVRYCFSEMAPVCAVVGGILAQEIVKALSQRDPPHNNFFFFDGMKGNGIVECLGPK
T3 sequence (Q9UBT2 whole entry): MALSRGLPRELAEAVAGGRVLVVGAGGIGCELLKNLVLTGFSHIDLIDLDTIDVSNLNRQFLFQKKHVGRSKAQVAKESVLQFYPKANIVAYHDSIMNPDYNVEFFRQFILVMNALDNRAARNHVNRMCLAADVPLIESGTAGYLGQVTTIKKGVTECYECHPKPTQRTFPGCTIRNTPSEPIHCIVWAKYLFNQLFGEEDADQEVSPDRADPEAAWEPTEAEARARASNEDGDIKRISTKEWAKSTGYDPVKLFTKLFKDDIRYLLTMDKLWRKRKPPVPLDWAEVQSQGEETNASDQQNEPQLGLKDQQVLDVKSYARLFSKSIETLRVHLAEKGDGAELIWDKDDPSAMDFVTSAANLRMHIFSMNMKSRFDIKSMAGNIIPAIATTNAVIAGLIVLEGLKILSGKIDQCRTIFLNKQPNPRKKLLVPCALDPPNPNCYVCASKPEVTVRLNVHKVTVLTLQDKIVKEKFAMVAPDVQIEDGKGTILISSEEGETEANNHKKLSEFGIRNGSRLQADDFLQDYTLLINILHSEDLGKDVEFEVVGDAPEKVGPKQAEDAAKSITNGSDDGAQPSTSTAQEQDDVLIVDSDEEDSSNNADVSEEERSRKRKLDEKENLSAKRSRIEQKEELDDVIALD

SMILES	EC50 (Protein RecA)	AC50 [1]	IC50 (SUMO-activating enzyme [2])	IC50 [3]	IC50 (SUMO-activating enzyme [4])
Oc1ccc(/N=C/c2ccc(OCc3ccccc3)cc2)cc1	> 380 µM (inactive)	> 380 µM (inactive)	–	–	–
Nc1c(N2CCCC2)cc(Cl)c2nonc12	1.65 µM (active)	8.9 µM (active)	5.6 µM (active)	11 µM (active)	2.16 µM (active)
O=C(NNc1cc(N2CCOCC2)nc(N2CCOCC2)n1)c1ccc([N+](=O)[O-])cc1	–	–	15.8 µM (active)	13.6 µM (active)	6.57 µM (active)
